The values that follow come from the SangsterLogP compilation.

This data set can be described thus: method code SF-AS, from DOI: 10.1246/bcsj.68.782. The conditions noted are these: pH 2.0.
For orientation: logD means lipophilicity at a set pH, counting ionised and neutral species. Higher therefore signals higher lipophilicity. Turning to `O=C(O)c1cc(Cl)cc(Cl)c1`, the log distribution coefficient (logD) is 3.29.

The compound `Cc1ccc(C(=O)O)c(O)c1` registered a log distribution coefficient (logD) of 2.8.

In the case of `O=C(O)c1cccc(F)c1F`, the logD stood at 1.88. The result for `COc1cc(C(=O)O)cc(OC)c1OC` reads 1.66; that for `COc1cc(C(=O)O)cc(OC)c1O`, 1.13.

On to `O=C(O)c1cc(O)c(Br)c(O)c1`, for which the pH-dependent lipophilicity (logD) came out at 1.75. The compound `COc1c([N+](=O)[O-])cc(C(=O)O)cc1[N+](=O)[O-]` came in with a logD of 1.73.

Turning to `Cc1ccc([N+](=O)[O-])c(C(=O)O)c1`, the log distribution coefficient (logD) is 1.63. The figure for `Cc1ccc(C(=O)O)cc1[N+](=O)[O-]` is 2.35; for `Cc1c(C(=O)O)cccc1[N+](=O)[O-]` it is 2.16. The figure for `O=C(O)c1ccc(Cl)cc1Cl` is 2.76.

As to `Cc1cc(C(=O)O)ccc1[N+](=O)[O-]`, the log distribution coefficient (logD) is 2.42. The result for `O=C(O)c1ccc(Cl)c([N+](=O)[O-])c1` reads 2.53.
